The source of these data is publication PMC9897788, “Design, synthesis and cytotoxic evaluation of novel bis-thiazole derivatives as preferential Pim1 kinase inhibitors with in vivo and in silico study” (Journal of Enzyme Inhibition and Medicinal Chemistry, 2023).

Holding throughout (experiment): NCI 60 cell one-dose screening (SRB)
Holding throughout (assay type): cell-based

One test deals with ACHN. The settings on record: Homo sapiens, Renal Cancer, single dose 10 µM, 48 h, read-out: Percentage of cellular growth inhibition. The essentials:
(§1)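 Growth percentage, referenced to time-zero and drug-free wells and measured by SRB absorbance (515 nm), was subtracted from 100 to give inhibition. Cells had been pre-grown 24 h, then incubated 48 h at 37 °C, 5% CO2 with test compound at 10 µM final.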

Another test has as its system SNB-19. The settings on record: Homo sapiens; SNB-19, CNS Cancer; single dose 10 µM, 48 h; read-out: Percentage of cellular growth inhibition. The essentials:
as §1

The test system of another test is U251. The conditions noted are these: Homo sapiens, U-251; U251, CNS Cancer; single dose 10 µM, 48 h; read-out: Percentage of cellular growth inhibition. The procedure, abridged: as §1
A further test relates to A549/ATCC. The conditions noted are these: Homo sapiens, Non-Small Cell Lung Cancer, single dose 10 µM, 48 h, read-out: Percentage of cellular growth inhibition. The essentials:
as §1

For a further test, the system named is SF-539. The settings on record: Homo sapiens; SF-539, CNS Cancer; single dose 10 µM, 48 h; read-out: Percentage of cellular growth inhibition. The procedure, abridged:
as §1

A further test relates to SF-295. The conditions noted are these: Homo sapiens; SF-295, CNS Cancer; single dose 10 µM, 48 h; read-out: Percentage of cellular growth inhibition. The procedure, abridged: as §1
The next test concerns NCI/ADR-RES. The conditions noted are these: Homo sapiens, Ovarian Cancer, single dose 10 µM, 48 h, read-out: Percentage of cellular growth inhibition. The essentials:
as §1

In another test the test system is M14. The settings on record: Homo sapiens; M14, Melanoma; single dose 10 µM, 48 h; read-out: Percentage of cellular growth inhibition. The essentials:
as §1

A further test deals with MDA-MB-468. The conditions noted are these: Homo sapiens; MDA-MB-468, Breast Cancer; single dose 10 µM, 48 h; read-out: Percentage of cellular growth inhibition. The procedure, abridged: as §1
The subject of another test is COLO 205. The conditions noted are these: Homo sapiens; COLO 205, Colon Cancer; single dose 10 µM, 48 h; read-out: Percentage of cellular growth inhibition. The essentials: as §1
A further test deals with HOP-92. The settings on record: Homo sapiens, HOP-92, 48 h, HOP-92, Non-Small Cell Lung Cancer, single dose 10 µM, read-out: Percentage of cellular growth inhibition. The essentials: as §1
Another test has as its system NCI-H522. The conditions noted are these: Homo sapiens; NCI-H522, Non-Small Cell Lung Cancer; single dose 10 µM, 48 h; read-out: Percentage of cellular growth inhibition. The procedure, abridged:
as §1

The next test deals with SK-OV-3. The settings on record: Homo sapiens; SK-OV-3, Ovarian Cancer; single dose 10 µM, 48 h; read-out: Percentage of cellular growth inhibition. The procedure, abridged:
as §1

A further test deals with SK-MEL-5. The settings on record: Homo sapiens; SK-MEL-5, Melanoma; single dose 10 µM, 48 h; read-out: Percentage of cellular growth inhibition. The procedure, abridged: as §1
The test system of another test is RXF 393. The conditions noted are these: Homo sapiens; RXF 393, Renal Cancer; single dose 10 µM, 48 h; read-out: Percentage of cellular growth inhibition. The essentials: as §1
The subject of the next test is MOLT-4. The settings on record: Homo sapiens; MOLT-4, Leukemia; single dose 10 µM, 48 h; read-out: Percentage of cellular growth inhibition. The essentials:
as §1

The next test concerns HS 578T. The settings on record: Homo sapiens, Breast Cancer, single dose 10 µM, 48 h, read-out: Percentage of cellular growth inhibition. The procedure, abridged:
as §1

The test system of another test is SK-MEL-28. The settings on record: Homo sapiens; SK-MEL-28, Melanoma; single dose 10 µM, 48 h; read-out: Percentage of cellular growth inhibition. The essentials: as §1
A further test has as its system SN12C. The conditions noted are these: Homo sapiens, Renal Cancer, single dose 10 µM, 48 h, read-out: Percentage of cellular growth inhibition. The essentials:
as §1

A further test concerns HCT-15. The settings on record: Homo sapiens; HCT-15, Colon Cancer; single dose 10 µM, 48 h; read-out: Percentage of cellular growth inhibition. The procedure, abridged: as §1
The next test concerns K-562. The conditions noted are these: Homo sapiens, K562; K-562, Leukemia; single dose 10 µM, 48 h; read-out: Percentage of cellular growth inhibition. The procedure, abridged:
as §1

The inhibition is the change of the read-out against control, counted positive when it falls. As for `S=C(Nc1ccccc1)Nc1cccc(NC(=S)Nc2ccccc2)c1` [compound 7, 1,1′-(1,3-phenylene)bis(3-phenylthiourea)], the inhibition at 10 µM in the test with ACHN is -3.8%; in the test on SNB-19 it was 3.4%; in the test with U251, -1.4%; with A549/ATCC, 0.1%; with SF-539 it was -11.5%; with SF-295, 1.2%. The inhibition at 10 µM with NCI/ADR-RES is -9.3%; with M14, -19.6%; in the test on MDA-MB-468, -8.4%; with COLO 205, -37.6%; in the test on HOP-92, -15.7%; with NCI-H522, -6.3%. Further, the inhibition at 10 µM is -29% in the test with SK-OV-3; 1.5% in the test with SK-MEL-5; -16.6% in the test with RXF 393; -5.8% in the test with MOLT-4; 3.9% with HS 578T; -9.8% in the test with SK-MEL-28. For the same compound, the inhibition at 10 µM was 4.5% in the test with SN12C, 0.8% with HCT-15 and 9.7% in the test with K-562.
For the compound `CCOC(=O)c1sc(Nc2cccc(Nc3nc(C)c(C(=O)OCC)s3)c2)nc1C` [3c, Diethyl 2,2’-(1,3-phenylenebis(azanediyl))bis(4-methylthiazole-5-carboxylate)], the inhibition at 10 µM was determined as 24.6% with ACHN; 17.7% in the test with SNB-19; 16.7% with U251; 12% in the test with A549/ATCC; 16.2% in the test on SF-539; 33.8% with SF-295. For the same compound, the inhibition at 10 µM stood at 33.1% with NCI/ADR-RES; 14% in the test on M14; 52.4% with MDA-MB-468; 12.8% with COLO 205; 47.8% in the test on HOP-92; 26.7% in the test on NCI-H522. For the same compound, the inhibition at 10 µM amounted to 1.3% with SK-OV-3; 55.1% with SK-MEL-5; 9% in the test with RXF 393; 29.2% with MOLT-4; 14.7% in the test with HS 578T; 15.7% with SK-MEL-28. For the same compound, the inhibition at 10 µM in the test with SN12C is 11.8%; with HCT-15 it was 20.9%; with K-562, 39.9%.
For the compound `c1ccc(-c2csc(Nc3cccc(Nc4nc(-c5ccccc5)cs4)c3)n2)cc1` [6a, N^1,N^3-bis(4-phenylthiazol-2-yl)benzene-1,3-diamine], the inhibition at 10 µM came to 63.8% in the test with ACHN; 42% in the test with SNB-19; 48.8% in the test with U251; 55.8% with A549/ATCC; 42.3% in the test on SF-539; 62.4% in the test on SF-295. In addition, the inhibition at 10 µM with NCI/ADR-RES worked out at 73.9%; in the test with M14 it was 52.2%; in the test with MDA-MB-468, 60.8%; in the test on COLO 205, 16.5%; with HOP-92 it was 56.3%; in the test on NCI-H522, 88.6%. The inhibition at 10 µM came out at 2.5% in the test on SK-OV-3; 79% with SK-MEL-5; 36.2% with RXF 393; 86.3% in the test with MOLT-4; 43.5% in the test with HS 578T; 39.1% in the test on SK-MEL-28. The inhibition at 10 µM stood at 56.6% in the test with SN12C, 69.5% in the test on HCT-15 and 73.4% in the test on K-562.
In the case of `c1ccc(/N=c2\scc(-c3ccccc3)n2-c2cccc(-n3c(-c4ccccc4)cs/c3=N\c3ccccc3)c2)cc1` [8a, N,N’-(3,3’-(1,3-phenylene)bis(4-phenylthiazole-3(3H)-yl-2(3H)-ylidene))dianiline], the inhibition at 10 µM in the test with ACHN was 3%; with SNB-19, -5.9%; in the test with U251 it was 2.7%; in the test with A549/ATCC, -4.9%; in the test with SF-539, -7.1%; in the test with SF-295, -22.4%. Besides, the inhibition at 10 µM in the test on NCI/ADR-RES is -5%; with M14, -14.3%; in the test on MDA-MB-468 it was 9%; in the test with COLO 205 it was -21.3%; with HOP-92, 14.5%; in the test with NCI-H522, 12.2%. The inhibition at 10 µM in the test on SK-OV-3 was -34.8%; in the test with SK-MEL-5, 4%; in the test with RXF 393, 10.3%; in the test on MOLT-4, -5.5%; in the test with HS 578T, 4.2%; in the test with SK-MEL-28, -3.6%. Besides, the results for the inhibition at 10 µM in the test on SN12C, in the test on HCT-15 and in the test with K-562 were 3.9%, -4.7% and 7.8%, respectively.
`NC(=S)Nc1cccc(NC(N)=S)c1` [compound 2, 1,1′-(1,3-phenylene)bis(thiourea)]: the inhibition at 10 µM in the test with ACHN is 3.7%; with SNB-19 it was 11.7%; in the test with U251, 11.2%; in the test with A549/ATCC, 6.1%; in the test with SF-539 it was -0.5%; in the test on SF-295 it was 9.8%. Moreover, the inhibition at 10 µM in the test on NCI/ADR-RES is 2.4%; with M14 it was -25.1%; in the test with MDA-MB-468, 13.5%; with COLO 205 it was -36.7%; in the test on HOP-92, -4.5%; in the test with NCI-H522, 2.8%. In addition, the inhibition at 10 µM was -25.8% in the test on SK-OV-3; 8.6% with SK-MEL-5; -3.8% with RXF 393; 10.3% with MOLT-4; -5% in the test on HS 578T; -3.8% in the test with SK-MEL-28. In addition, the inhibition at 10 µM was 18.1% in the test on SN12C, 4.9% with HCT-15 and 90.7% with K-562.
`Fc1ccc(-c2cs/c(=N\c3ccccc3)n2-c2cccc(-n3c(-c4ccc(F)cc4)cs/c3=N\c3ccccc3)c2)cc1` [8b, N,N’-(3,3’-(1,3-phenylene)bis(4–(4-fluorophenyl)thiazole-3(3H)-yl-2(3H)-ylidene))dianiline]: the inhibition at 10 µM with ACHN was 2.3%; in the test with SNB-19 it was 5.6%; in the test with U251 it was 28.1%; in the test with A549/ATCC, 19.8%; in the test on SF-539 it was -0.9%; with SF-295, -18.8%. Moreover, the inhibition at 10 µM in the test with NCI/ADR-RES was 10.2%; with M14 it was 0.4%; in the test with MDA-MB-468, 51.2%; in the test on COLO 205 it was -0.4%; in the test on HOP-92, 22%; in the test with NCI-H522 it was 41.6%. The inhibition at 10 µM is -15.4% in the test with SK-OV-3; 9.3% in the test with SK-MEL-5; 11.6% in the test on RXF 393; 50.1% in the test with MOLT-4; 13.4% with HS 578T; 1.7% in the test on SK-MEL-28. Further, the inhibition at 10 µM in the test with SN12C came to 7.5%; in the test on HCT-15, 21.7%; with K-562 it was 28.8%.
